Earlier results on 2 molecules are cited in patent US20090162858A1, “Orthogonal chemical inducer of dimerization” (priority 2007, published 2009).

The data set deals with wild type Saccrharomyces cerevisiae. The note with it: [Game, 1975].

Take `COc1cc(Cc2cnc(N)nc2N)cc(OC)c1OC` [Trimethoprim, 2,4-diamino-5-(3,4,5-trimethoxybenzyl)pyrimidine]: the “growth of wild type yeast” value is on record as “does not”.
For `CN(Cc1cnc2nc(N)nc(N)c2n1)c1ccc(C(=O)N[C@@H](CCC(=O)O)C(=O)O)cc1` [Methotrexate], the “growth of wild type yeast” value is “inhibits growth”.
